Results taken from patent EP0080071A2, “2-Imidazolylmethyl-2-phenyl-1,3-dioxolanes, process for their preparation and their use as fungicides” (BAYER AG, priority 1981, dated 1983).

What was measured:
Podosphaera leucotricha = assay: Podosphaera test (apple) / protective; type: in vivo; details: protective spray on young apple plants; evaluation 9 days after inoculation; compared with the prior-art comparison substances
Description: Podosphaera-Test (Apfel) / protektiv
• Lösungsmittel: 4,7 Gewichtsteile Aceton • Emulgator: 0,3 Gewichtsteile Alkylarylpolyglykolether
Zur Herstellung einer zweckmäßigen Wirkstoffzubereitung vermischt man 1 Gewichtsteil Wirkstoff mit den angegebenen Mengen Lösungsmittel und Emulgator und verdünnt das Konzentrat mit Wasser auf die gewünschte Konzentration.
Zur Prüfung auf protektive Wirksamkeit bespritzt man jungePflanzen mit der Wirkstoffzubereitung bis zur Tropfnässe. Nach Antrocknen des Spritzbelages werden die Pflanzen durch Bestäuben mit Konidien des Apfelmehltauerregers (Podosphaera leucotricha) inokuliert.
Die Pflanzen werden dann im Gewächshaus bei 23°C und einer relativen Luftfeuchtigkeit von ca. 70 % aufgestellt.
9 Tage nach der Inokulation erfolgt die Auswertung.

[1] = system: Drechslera graminea (syn. Helminthosporium gramineum); assay: Drechslera graminea test (barley) / seed treatment; type: in vivo; details: dry seed dressing of infected barley seed; evaluation for stripe disease symptoms ca. 3 weeks after sowing; compared with the prior-art comparison substances
Description: Drechslera graminea-Test (Gerste) / Saatgutbehandlung (syn. Helminthosporium gramineum)
Die Anwendung der Wirkstoffe erfolgt als Trockenbeizmittel. Sie werden zubereitet durch Abstrecken des jeweiligen Wirkstoffes mit Gesteinsmehl zu einer feinpulvrigen Mischung, die eine gleichmäßige Verteilung auf der Saatgutoberfläche gewährleistet.
Zur Beizung schüttelt man das infizierte Saatgut 3 Minuten lang mit dem Beizmittel in einer verschlossenen Glasflasche.
Das Saatgut setzt man in gesiebter, feuchter Standarderde eingebettet, in verschlossenen Petrischalen im Kühlschrank 10 Tage lang einer Temperatur von 4°C aus. Dabei wird die Keimung der Gerste und gegebenenfalls auch der Pilzsporen eingeleitet. Anschließend sät man die vorgekeimte Gerste mit 2 x 50 Korn 3 cm tief in eine Standarderde und kultiviert sie im Gewächshaus bei einer Temperatur von ca. 18°C in Saatkästen, die täglich 15 Stunden dem Licht ausgesetzt werden.
Ca. 3 Wochen nach der Aussaat erfolgt die Auswertung der Pflanzen auf Symptome der Streifenkrankheit.

Cl.FC(F)(F)c1cc(Cl)ccc1C1(Cn2ccnc2)OCCO1 [Beispiel 1, 2-(4-Chlor-2-trifluormethyl)-phenyl-2-(imidazol-1-yl)-methyl-1,3-dioxolan-hydrochlorid]
Wirksamkeit (Podosphaera leucotricha): deutliche Überlegenheit in der Wirksamkeit gegenüber dem Stand der Technik | Wirksamkeit [1]: deutliche überlegenheit in der Wirksamkeit gegenüber dem Stand der Technik
